{"source": "patent US20260206796A1", "about": "“FEED COMPOSITIONS” (Solugen, Inc., priority 2023, published 2026)", "type_in_all_cases": "in vivo", "key": {"[1]": {"system": "freshwater shrimp", "assay": "10 week shrimp feeding trial with feed additives (phosphate level in tank water, survival)", "details": "for Shrimp survival rate: over 10 weeks of feeding trial, 1.2% additive in diet", "source_text": "To validate if gluconates can be used as an acidulant additives in fish feed to increase shrimp's digestion and reduce phosphate discharge to aquaculture farm water, freshwater shrimp were fed with 1) regular shrimp diet as a control, 2) the same shrimp diet with 1.2% of an FIA, particularly gluconate, as disclosed herein and 3) the shrimp diet with 1.2% sodium citrate as an additive.\nPhosphate reduction was equivalently high level to slightly better than citric acid up to 12.5 wt. %. This functionality of reducing phosphate level in discharged water from aquaculture farms is beneficial with respect to environmental regulations as aquaculture farmers are dealing with and the restrictions on the allowed phosphate level in the discharged water waste from aquaculture farms."}, "[2]": {"system": "tilapia", "assay": "2 month tilapia growth trial on soybean meal-based diets (growth, feed conversion, phosphorus discharge)", "details": "additive 0.5 wt. % in diet; for Fecal phosphorus content compared to control diet: feces after 2 months on diets; for Phosphorus discharge (via urine) in the water compared to soybean based control diet: new clean water sampled after 4 hours", "source_text": "The efficacy of an FIA used as fish feed was investigated. The aim of this study was to assess the efficacy of (i) a feed comprising an FIA of the type disclosed herein (e.g., gluconate) on the growth, phosphorus discharge, biochemical composition and histopathology in tilapia when compared to (ii) a soybean meal-based diet that would have a similar formulation as commercial feeds or (iii) a soybean meal-based diet that includes an FIA of the type disclosed herein or sodium citrate, respectively. Sodium citrate was chosen because this is a competitive chelator and has in the past shown to improve phosphorus utilization/reduce phosphorus discharge in various aquatic animals.\nTo compare the efficacy of an FIA of the type disclosed herein, a total of 4 isonitrogenous and isolipidic diets were formulated to satisfy the nutritional requirements of tilapia. The crude protein and crude lipid content of the diets were all 32 wt. % and 8 wt. %, respectively. However, the percentages of proteins and supplements were altered to satisfy the aims of this study. Soybean meal was used across all diets. Diet 1 was the control with only soybean meal (cellulose at 0.5 wt. %).\nThe FIA appeared like packaging peanuts, and thus needed to be ground into a fine powder for the product to be adequately mixed in the diet. All diets were made using a pelleter and the pellets were dried in an oven at 60° C. and stored at −20° C. until use.\nA total of 90 all male tilapia were equally distributed among 9 oval polyethylene tanks that ran on a recirculating system. Thus, all the fish shared the same water throughout the 2 month growth trial. After the fish were stocked, of approximately equal size, the tanks were randomly allocated their treatments in triplicate. For the first week, the tilapia were fed the control diet to acclimate them to the experimental conditions and then after a week were hand fed twice daily to apparent satiation on their respective experimental diets.\nThroughout the study, excess waste was manually siphoned out of the system and water exchanges were provided weekly. Feed intake was recorded to later calculate the feed conversion ratio. Fish feces were collected, dried and measured for the phosphorus levels after 2 months.\n(§1) After 2 months, all the fish were weighed to assess weight gain. Two fish/tank were sampled for liver and intestinal histopathology and the muscle sent out for biochemical analysis. The remaining fish were placed in new clean water and the water was sampled at 4 hours and measured for phosphorus levels mostly derived from urine."}, "[3]": {"system": "tilapia", "assay": "Liver and intestinal histopathology of tilapia after 2 months on the diets", "details": "for Intestinal histopathology / Liver histopathology / hepatic toxicity: additive 0.5 wt. % in diet, hematoxylin and eosin staining", "description": "as §1"}}, "note": "Counter-ions that a name gives are not always drawn.", "data": [{"smiles": "O=C(O)CC(O)(CC(=O)O)C(=O)O", "note": "[sodium citrate, reference compound]", "values": [{"measurement": "Shrimp survival rate", "setting": "[1]", "result": 58, "unit": "%"}, {"measurement": "Fecal phosphorus content compared to control diet", "setting": "[2]", "result": "significantly less"}, {"measurement": "Phosphorus discharge (via urine) in the water compared to soybean based control diet", "setting": "[2]", "result": "significantly less"}, {"measurement": "Intestinal histopathology", "setting": "[3]", "result": "inflammation of the intestinal villi and goblet cell hyperplasia"}, {"measurement": "Liver histopathology / hepatic toxicity", "setting": "[3]", "result": "varying degrees of hepatic lesions"}, {"measurement": "Liver histopathology / hepatic toxicity", "setting": "[3]; listed as Sodium citrate", "result": "hepatic toxicity based on both mild effects (localized inflammation) to severe (extensive necrosis, vacuolization and hemorrhaging)"}, {"measurement": "Intestinal histopathology", "setting": "[3]; listed as citrate", "result": "severe inflammation in goblet cell (gc) and the lamina propria (lp)"}]}, {"smiles": "O=C(O)[C@H](O)[C@@H](O)[C@H](O)[C@H](O)CO", "note": "[gluconate]", "values": [{"measurement": "Phosphate reduction compared to citric acid", "setting": "[1]; 1.2% additive in shrimp diet, vs citric acid additive diet", "result": "up to 12.5 wt. %"}, {"measurement": "Phosphate reduction in tank water compared to control (regular shrimp diet)", "setting": "[1]; 1.2% additive in shrimp diet, vs control diet", "result": "up to 19 wt. %"}, {"measurement": "Shrimp survival rate", "setting": "[1]", "result": 75, "unit": "%"}, {"measurement": "Fecal phosphorus content compared to control diet", "setting": "[2]", "result": "significantly less"}, {"measurement": "Phosphorus discharge (via urine) in the water compared to soybean based control diet", "setting": "[2]", "result": "significantly less"}, {"measurement": "Overall safety for consumption at the level tested", "setting": "[3]; 0.5 wt. % in diet", "result": "safe for tilapia consumption"}, {"measurement": "Intestinal histopathology", "setting": "[3]", "result": "no such adverse effects"}, {"measurement": "Liver histopathology / hepatic toxicity", "setting": "[3]; listed as FIA", "result": "no hepatic toxicity"}, {"measurement": "Liver histopathology / hepatic toxicity", "setting": "[3]; listed as sugar oxidation product", "result": "normal sinusoid organization with clear central veins and intact and well dispersed pancreatic islets"}]}]}
